Measurements from ChEMBL document CHEMBL1201862, “PubChem BioAssay data set” (2004).
Where a name gives a salt, the structure may show the parent alone.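 1) Cells in 96-well plates. 2) Compound, 48 h, 5 concentrations. 3) Linear interpolation between surrounding doses. 4) Unreached endpoint = highest concentration. GI50: concentration for 50% inhibition of growth.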 Active and inactive are the calls of the source. Rule as the data show it: active = GI50 up to about 1.1 µM and inactive = higher.

How the values were obtained:
Assay in all cases: NCI-60 cell line screen, 48 h
BT-549 = test system: BT-549
CCRF-CEM = test system: CCRF-CEM
COLO 205 = test system: COLO 205
HCT-15 = test system: HCT-15
HOP-62 = test system: HOP-62
Hs-578T = test system: Hs-578T
IGROV-1 = test system: IGROV-1
MDA-MB-435 = test system: MDA-MB-435
MDA-N = test system: MDA-N
Malme-3M = test system: Malme-3M
NCI-H23 = test system: NCI-H23
NCI-H460 = test system: NCI-H460
PC-3 = test system: PC-3
RPMI-8226 = test system: RPMI-8226
SF-268 = test system: SF-268
SF-539 = test system: SF-539
SK-OV-3 = test system: SK-OV-3
SN12C = test system: SN12C
TK-10 = test system: TK-10
UACC-62 = test system: UACC-62

Row | SMILES | GI50 (BT-549) | GI50 (CCRF-CEM) | GI50 (COLO 205) | GI50 (HCT-15) [µM] | GI50 (HOP-62) | GI50 (Hs-578T) | GI50 (IGROV-1) | GI50 (MDA-MB-435) | GI50 (MDA-N) | GI50 (Malme-3M) | GI50 (NCI-H23) | GI50 (NCI-H460) | GI50 (PC-3) | GI50 (RPMI-8226) | GI50 (SF-268) | GI50 (SF-539) | GI50 (SK-OV-3) | GI50 (SN12C) | GI50 (TK-10) | GI50 (UACC-62)
1 | CN(C)Cc1cc(/N=N/c2ccccc2Cl)ccc1O | 17 µM (inactive) | 17.4 µM (inactive) | 13.4 µM (inactive) | 20.1 | 10.7 µM (inactive) | 16.7 µM (inactive) | 25.8 µM (inactive) | 17.7 µM (inactive) | 17.5 µM (inactive) | 12.6 µM (inactive) | 24.7 µM (inactive) | 5.98 µM (inactive) | 27.5 µM (inactive) | 23.7 µM (inactive) | 25.1 µM (inactive) | 24.3 µM (inactive) | 39.2 µM (inactive) | 25.6 µM (inactive) | 22.1 µM (inactive) | 18.6 µM (inactive)
2 | Cc1cc(C2(c3cc(C)c(O)c(C(=O)O)c3)OS(=O)(=O)c3ccccc32)cc(C(=O)O)c1O | > 100 µM (inactive) | – | > 100 µM (inactive) | > 100 | > 100 µM (inactive) | > 100 µM (inactive) | > 100 µM (inactive) | > 100 µM (inactive) | > 100 µM (inactive) | > 100 µM (inactive) | – | > 100 µM (inactive) | > 100 µM (inactive) | > 100 µM (inactive) | > 100 µM (inactive) | > 100 µM (inactive) | > 100 µM (inactive) | > 100 µM (inactive) | > 100 µM (inactive) | > 100 µM (inactive)
3 | CCN(CC)c1ccc2cc(C(N)=S)c(=N)oc2c1 | 37.9 µM (inactive) | > 100 µM (inactive) | > 100 µM (inactive) | > 100 | > 100 µM (inactive) | > 100 µM (inactive) | > 100 µM (inactive) | > 100 µM (inactive) | > 100 µM (inactive) | 87.9 µM (inactive) | – | > 100 µM (inactive) | > 100 µM (inactive) | > 100 µM (inactive) | > 100 µM (inactive) | > 100 µM (inactive) | > 100 µM (inactive) | > 100 µM (inactive) | > 100 µM (inactive) | > 100 µM (inactive)
4 | CCN(CC)CCNc1ccc(C)c2sc3ccccc3c(=O)c12 [LUCANTHONE HYDROCHLORIDE] | 4.36 µM (inactive) | 1.91 µM (inactive) | 1.67 µM (inactive) | 2.75 | 6.5 µM (inactive) | 2.15 µM (inactive) | 5.42 µM (inactive) | 2.04 µM (inactive) | 1.95 µM (inactive) | 3.84 µM (inactive) | 3.33 µM (inactive) | 1.97 µM (inactive) | 2.03 µM (inactive) | 1.9 µM (inactive) | 5.81 µM (inactive) | 2.75 µM (inactive) | 6.71 µM (inactive) | 2.67 µM (inactive) | 3.72 µM (inactive) | 1.84 µM (inactive)
5 | O=C1NC(=S)N/C1=C\c1ccc(Cl)cc1 | > 100 µM (inactive) | 54.2 µM (inactive) | 80.5 µM (inactive) | > 100 | > 100 µM (inactive) | 50.4 µM (inactive) | > 100 µM (inactive) | > 100 µM (inactive) | > 100 µM (inactive) | > 100 µM (inactive) | > 100 µM (inactive) | – | > 100 µM (inactive) | 77.3 µM (inactive) | > 100 µM (inactive) | > 100 µM (inactive) | > 100 µM (inactive) | > 100 µM (inactive) | > 100 µM (inactive) | 46.3 µM (inactive)
6 | O=C(/C=C\Nc1ccccc1O)C(F)(F)F | > 100 µM (inactive) | 39 µM (inactive) | 13.9 µM (inactive) | 40.8 | 30.6 µM (inactive) | > 100 µM (inactive) | 78.9 µM (inactive) | 60.1 µM (inactive) | 43 µM (inactive) | 26.5 µM (inactive) | 78.3 µM (inactive) | 67.5 µM (inactive) | 37.3 µM (inactive) | 15.5 µM (inactive) | > 100 µM (inactive) | > 100 µM (inactive) | 49.1 µM (inactive) | 54.8 µM (inactive) | > 100 µM (inactive) | 45.4 µM (inactive)
7 | CSc1c(C#N)c(O)nc(N)c1C(=O)Nc1ccc(C)cc1 | > 100 µM (inactive) | 97.5 µM (inactive) | > 100 µM (inactive) | > 100 | – | > 100 µM (inactive) | – | > 100 µM (inactive) | > 100 µM (inactive) | > 100 µM (inactive) | 90.6 µM (inactive) | > 100 µM (inactive) | > 100 µM (inactive) | > 100 µM (inactive) | > 100 µM (inactive) | > 100 µM (inactive) | > 100 µM (inactive) | > 100 µM (inactive) | > 100 µM (inactive) | > 100 µM (inactive)
8 | O=C(O)c1ccc(P(=O)(O)c2ccc(C(=O)O)cc2Br)c(Br)c1 | > 100 µM (inactive) | > 10 µM (inactive) | > 100 µM (inactive) | > 100 | > 100 µM (inactive) | > 100 µM (inactive) | > 100 µM (inactive) | > 100 µM (inactive) | > 100 µM (inactive) | – | > 100 µM (inactive) | – | > 100 µM (inactive) | > 100 µM (inactive) | > 100 µM (inactive) | > 100 µM (inactive) | > 100 µM (inactive) | > 100 µM (inactive) | > 100 µM (inactive) | > 100 µM (inactive)
9 | CC(=O)N1CC[N+](C)(CCCCN2c3ccccc3Sc3cc(N=[N+]=[N-])ccc32)CC1 | > 100 µM (inactive) | > 100 µM (inactive) | > 100 µM (inactive) | > 100 | > 100 µM (inactive) | 75.9 µM (inactive) | > 100 µM (inactive) | > 100 µM (inactive) | > 100 µM (inactive) | > 100 µM (inactive) | > 100 µM (inactive) | > 100 µM (inactive) | > 100 µM (inactive) | > 100 µM (inactive) | > 100 µM (inactive) | > 100 µM (inactive) | > 100 µM (inactive) | > 100 µM (inactive) | > 100 µM (inactive) | > 100 µM (inactive)
10 | COc1ccc(OC)c(N2C(=O)CSC2c2cc(OC)c(OC)c(OC)c2)c1 (stereo not given) | 48.4 µM (inactive) | 71.8 µM (inactive) | > 100 µM (inactive) | 98.4 | – | > 100 µM (inactive) | > 100 µM (inactive) | 29.8 µM (inactive) | 33.4 µM (inactive) | > 100 µM (inactive) | > 100 µM (inactive) | > 100 µM (inactive) | > 100 µM (inactive) | > 100 µM (inactive) | > 100 µM (inactive) | > 100 µM (inactive) | > 100 µM (inactive) | > 100 µM (inactive) | > 100 µM (inactive) | > 100 µM (inactive)
11 | Cc1ccc(Cc2n[nH]c(=O)n2/N=C\CC/C=N\n2c(Cc3ccc(C)cc3)n[nH]c2=O)cc1 | 23 µM (inactive) | 4.1 µM (inactive) | > 100 µM (inactive) | 26 | 6.37 µM (inactive) | 15.5 µM (inactive) | 33.3 µM (inactive) | 36.3 µM (inactive) | 37.1 µM (inactive) | 33.2 µM (inactive) | 26.9 µM (inactive) | – | 31.3 µM (inactive) | 57.9 µM (inactive) | 18 µM (inactive) | 3.99 µM (inactive) | 36.6 µM (inactive) | 44.7 µM (inactive) | > 100 µM (inactive) | 25.8 µM (inactive)
12 | OCCN(CO)CO | > 100 µM (inactive) | – | > 100 µM (inactive) | > 100 | > 100 µM (inactive) | > 100 µM (inactive) | > 100 µM (inactive) | > 100 µM (inactive) | > 100 µM (inactive) | > 100 µM (inactive) | > 100 µM (inactive) | > 100 µM (inactive) | > 100 µM (inactive) | 86.5 µM (inactive) | > 100 µM (inactive) | > 100 µM (inactive) | > 100 µM (inactive) | > 100 µM (inactive) | > 100 µM (inactive) | > 100 µM (inactive)
13 | C=C1C(=O)OC2C1CC(OC(C)=O)/C(C)=C/CCC1(C)OC21 (stereo not given) | > 100 µM (inactive) | > 100 µM (inactive) | > 100 µM (inactive) | > 100 | – | > 100 µM (inactive) | > 100 µM (inactive) | > 100 µM (inactive) | > 100 µM (inactive) | > 100 µM (inactive) | > 100 µM (inactive) | > 100 µM (inactive) | > 100 µM (inactive) | > 100 µM (inactive) | > 100 µM (inactive) | > 100 µM (inactive) | > 100 µM (inactive) | > 100 µM (inactive) | – | > 100 µM (inactive)
14 | CC(=O)NC1C(OCc2ccccc2)OC(CO)C(O)C1OCC(=O)N[C@@H](C)C(=O)N[C@H](CCC(=O)NCCCNc1c2ccccc2nc2cccc([N+](=O)[O-])c12)C(N)=O (stereo not given in full) | 0.0845 µM (active) | 0.052 µM (active) | 0.0118 µM (active) | 0.0312 | 0.08 µM (active) | 0.156 µM (active) | 0.0506 µM (active) | 0.0295 µM (active) | 0.023 µM (active) | 0.0292 µM (active) | 0.0248 µM (active) | 0.0101 µM (active) | 0.0368 µM (active) | 0.0411 µM (active) | – | 0.0298 µM (active) | 0.334 µM (active) | 0.0397 µM (active) | 0.0253 µM (active) | 0.0321 µM (active)
15 | CC1=CC(=O)/C(=C/Nc2nc(-c3ccc([N+](=O)[O-])cc3)cs2)C(=O)O1 | > 100 µM (inactive) | 31.5 µM (inactive) | > 100 µM (inactive) | > 100 | > 100 µM (inactive) | > 100 µM (inactive) | > 100 µM (inactive) | > 100 µM (inactive) | > 100 µM (inactive) | – | > 100 µM (inactive) | > 100 µM (inactive) | 46.5 µM (inactive) | > 100 µM (inactive) | > 100 µM (inactive) | > 100 µM (inactive) | > 100 µM (inactive) | > 100 µM (inactive) | > 100 µM (inactive) | > 100 µM (inactive)
